Earlier results as cited in patent US20030059487A1, “Composition and method for the treatment of hypercholesterolemia and hyperlipidemia in mammals” (priority 2001, published 2003).

Conditions: background statement on Lipitor

CC(C)c1c(C(=O)Nc2ccccc2)c(-c2ccccc2)c(-c2ccc(F)cc2)n1CC[C@@H](O)C[C@@H](O)CC(=O)O [atorvastatin]
raises HDL cholesterol: 5 to 10% | reduces LDL: 40 to 60% | reduces triglycerides: 20 to 40%
